A word on the IC50: it is the midpoint of a concentration-inhibition curve. One may read the AUC as the area under the concentration-time curve, a measure of exposure. Usually half-life stands for the time needed for the level to fall by half in the phase considered. The MRT is the average time that molecules of a dose stay in the body. For orientation: Cmax means the peak of the concentration-time curve.

Data set [1] deals with LNCaP cells. The data set is described as follows: Proliferation inhibition of LNCaP cells (CCK-8). The format is cell-based. The settings on record: Homo sapiens, 144 h, cultured 3 + 3 days, CCK-8, OD at 450 nm.
The test system of data set [2] is PSA secretion of LNCaP-AR cells (AR-overexpressed LNCaP cells). The data set is described as follows: Agonist activity on PSA secretion of LNCaP-AR cells. The format is cell-based. The settings on record: 96 h, 4 days, OD value (test compounds)/OD value (blank control), blank control 100. On the procedure:
The following in vitro assay was performed to determine the activity of a high concentration of the compounds of the present invention for agitating the PSA secretion of LNCaP-AR cells (AR-overexpressed LNCaP cells, referred to as “LNCaP-AR cells” for short, constructed by a retroviral transfection method).
LNCaP-AR cells were subcultured in cell culture medium, resuspended in active carbon culture medium, and then inoculated into a 96-well plate (100 μl/well) with an inoculation density of 5×10^4 cells/well.
The test compounds were dissolved in DMSO (dimethyl sulfoxide) and prepared as a 10 mM stock solution. When used, the stock solution was diluted with DMSO into the two concentrations of 2 mM and 0.6 mM. Then, the diluted concentrations were each diluted with 20× active carbon culture medium, in order to ensure DMSO concentration in each culture system was 0.5%. Diluted test compounds remained to be tested.
10 μl of diluted test compounds were added to a 96-well plate and mixed gently. 10 μl of 0.5% DMSO diluted with active carbon culture medium was added to the blank control group.
After 4 days of incubation, 60 μl of cell cultural supernatants were collected, and the OD value of PSA per well was measured on a NOVO Star microplate reader using PSA kit (abnova, KA0208).
Agonist activity of the test compounds of the present invention on PSA secretion of LNCaP-AR cells was evaluated by the percentage of OD value (test compounds)/OD value (blank control). When the percentage value is greater than 100, the test compounds have agonist activity on PSA secretion of LNCaP-AR cells compared to the blank control. Conversely, when the percentage value is less than 100, the test compounds have no agonist activity on PSA secretion of LNCaP-AR cells compared to the blank control.

In data set [3] the test system is PSA secretion of LNCaP cells. As to the kind of experiment: Inhibitory activity on PSA secretion of LNCaP cells. The settings on record: Homo sapiens, 96 h; LNCaP cells, 1 nM testosterone medium, 4 days of incubation, PSA kit OD450; read-out: IC50 (inhibition of PSA secretion of LNCaP cells). In kind it is cell-based.
Data set [4] in a line: Pharmacokinetics assay in rats, intragastric administration. The settings on record: Sprague-Dawley, rat, plasma, po, male SD rats, 5 mg/kg. The format is in vivo. On the procedure:
Male rats were used as test animals. The compounds of Example 6, Example 9, Example 11, Example 13, Example 15, Example 16, Example 17, Example 44, and Example 45 were administered intragastrically to rats to determine the drug concentration in plasma at different time points by LC/MS/MS method. The pharmacokinetic behavior of the compounds of the present invention was studied and evaluated in rats.
27 healthy adult male Sprague-Dawley (SD) rats, purchased from SINO-BRITISH SIPPR/BK LAB. ANIMAL LTD., CO, Certificate No.: SCXK (Shanghai) 2008-0016, were divided into 9 groups, with 3 rats in each group.
The appropriate amount of test compounds was weighed and mixed with 0.5% CMC-Na to prepare a 0.5 mg/mL suspension by an ultrasonic method.
After an overnight fast, 27 SD rats were divided into 9 groups, and administered the compounds intragastrically at a dose of 5.0 mg/kg and an administration volume of 10 mL/kg.
Compounds of Example 6, Example 9, Example 11, Example 13, Example 15, Example 16, Example 17, Example 44, and Example 45 were administered intragastrically to rats. Blood samples (0.1 mL) were taken from the orbital sinus before administration, and at 0.5 h, 1.0 h, 2.0 h, 3.0 h, 4.0 h, 6.0 h, 8.0 h, 11.0 h, and 24.0 h after administration, stored in heparinized tubes, and centrifuged for 5 minutes at 3,500 rpm to separate blood plasma. The plasma samples were stored at −20° C. The rats were fed 2 hours after administration.
The concentration of the different test compounds in rat plasma after intragastrically administering the test compounds was determined by LC-MS/MS method. The linearity of the method is 1.00-2000 ng/ml. Plasma samples were analyzed after protein precipitation was accomplished by the addition of methanol.

With `CC1(C)C(=O)N(c2ccc(C#N)c(C(F)(F)F)c2)C(=S)N1c1ccc(OC[C@@H](O)CO)cc1` [Example 44, (S)-4-(3-(4-(2,3-Dihydroxypropoxy)phenyl)-4,4-dimethyl-5-oxo-2-thioxoimidazolidin-1-yl)-2-(trifluoromethyl)benzonitrile], the IC50 is 33 nM in data set [1] and 22 nM in data set [3]. Moreover, the activity at 3 µM in data set [2] (3 μM) is 77.2%. Besides, the activity at 10 µM in data set [2] (10 μM) came to 92.7%. The Vd/F in data set [4] (read-out: Apparent Distribution Volume Vz/F) was 2.45 ± 0.376 L/kg. Also, the AUC in data set [4] (read-out: Area Under Curve AUC) came to 19300 ± 4170 ng·h/mL. In addition, the CL/F in data set [4] (read-out: Clearance CLz/F) came to 4.47 ± 1.08 mL/min/kg. In addition, the half-life in data set [4] (read-out: Half-Life T½ (converted)) is 6.41 ± 0.6 h. For the same molecule, the MRT in data set [4] (read-out: Mean Residence Time MRT) was found to be 10.5 ± 1.3 h. Also, the Cmax in data set [4] (read-out: Plasma Conc. Cmax) worked out at 1300 ± 275 ng/mL.
